Assay results reported in patent US9957264B2 (Merck Sharp & Dohme Corp., priority 2013, dated 2018).

Columns and labels:
[1] = target: JAK1 (recombinant purified GST-tagged catalytic domain) (Homo sapiens (Human), UniProt P23458); assay: Jak Biochemical HTRF Assay (JAK1); conditions: [ATP] 31.8 μM
Procedure, shortened: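 Read-out is the 665/615 nm time-resolved FRET ratio from Eu-pY20 antibody and streptavidin-Dylight 650 bound to phosphorylated biotin-peptide. Reactions ran 120 min at room temperature after ATP start. Inhibition normalized to untreated controls gave IC50 via 4-parameter fit.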

[2] = target: JAK2 (recombinant purified GST-tagged catalytic domain) (Homo sapiens (Human), UniProt O60674); assay: Jak Biochemical HTRF Assay (JAK2); conditions: [ATP] 8.5 μM
Sequence of JAK2 (recombinant purified GST-tagged catalytic domain) (O60674 849-1124): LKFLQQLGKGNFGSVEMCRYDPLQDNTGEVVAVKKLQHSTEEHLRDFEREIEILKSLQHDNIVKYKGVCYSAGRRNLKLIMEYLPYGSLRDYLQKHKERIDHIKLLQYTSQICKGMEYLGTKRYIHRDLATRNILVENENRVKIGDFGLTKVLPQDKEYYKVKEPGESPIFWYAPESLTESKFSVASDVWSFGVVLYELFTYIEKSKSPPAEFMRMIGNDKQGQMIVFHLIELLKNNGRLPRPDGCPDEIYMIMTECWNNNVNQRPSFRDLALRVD

Sequence of JAK1 (recombinant purified GST-tagged catalytic domain) (P23458 875-1153): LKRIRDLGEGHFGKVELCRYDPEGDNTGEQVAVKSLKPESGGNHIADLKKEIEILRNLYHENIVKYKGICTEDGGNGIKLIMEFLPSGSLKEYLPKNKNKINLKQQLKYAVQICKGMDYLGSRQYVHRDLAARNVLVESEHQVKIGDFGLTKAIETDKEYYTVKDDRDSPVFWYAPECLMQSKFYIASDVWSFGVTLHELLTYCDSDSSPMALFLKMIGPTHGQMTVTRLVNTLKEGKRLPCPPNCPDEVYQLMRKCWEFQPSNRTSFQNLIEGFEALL

SMILES | IC50 [1] | IC50 [2]
CC(C)(C)OC(=O)N1CCC(CC#N)(n2nc(Nc3ccc4c(c3)CNC4)c3c(=O)[nH]ccc32)CC1 [Example 5-66, tert-butyl 4-(cyanomethyl)-4-(3-(isoindolin-5-ylamino)-4-oxo-4,5-dihydropyrazolo[4,3-c]pyridin-1-yl)piperidine-1-carboxylate] | 0.26 nM | 0.43 nM
CC(C)S(=O)(=O)c1ccc(Nc2nn([C@]3(CC#N)CC[C@@H](C(=O)OC(C)(C)C)OC3)c3cc[nH]c(=O)c23)cc1 [Example 5-237, (2S,5S)-tert-butyl 5-(cyanomethyl)-5-(3-((4-(isopropylsulfonyl)phenyl)amino)-4-oxo-4,5-dihydro-1H-pyrazolo[4,3-c]pyridin-1-yl)tetrahydro-2H-pyran-2-carboxylate] | 0.15 nM | 0.28 nM
COC(=O)N1CCC(CC#N)(n2nc(Nc3ccc4c(c3)CN(C(C)(C)C)S4(=O)=O)c3c(=O)[nH]ccc32)CC1 [Example 5-71, methyl 4-{3-[(2-tert-butyl-1,1-dioxo-2,3-dihydro-1,2-benzothiazol-5-yl)amino]-4-oxo-1H,4H,5H-pyrazolo [4,3-c]pyridin-1-yl}-4-(cyanomethyl)piperidine-1-carboxylate] | 0.08 nM | 0.15 nM
CC(F)(F)C(=O)N1CCC(CC#N)(n2nc(Nc3ccc4c(c3)CN(C(C)(C)C)S4(=O)=O)c3c(=O)[nH]ccc32)CC1 [Example 5-26, 2-(4-(3-((2-(tert-butyl)-1,1-dioxido-2,3-dihydrobenzo [d]isothiazol-5-yl)amino)-4-oxo-4,5-dihydro-1H-pyrazolo[4,3-c]pyridin-1-yl)-1-(2,2-difluoro-propanoyl)piperidin-4-yl) acetonitrile] | 0.09 nM | 0.1 nM
CC(C)(C)OC(=O)N1CCC(CC#N)(n2nc(Nc3cc(Cn4nccn4)cc(Cn4nccn4)c3)c3c(=O)[nH]ccc32)CC1 [Example 5-63, tert-butyl 4-(3-(3,5-bis((2H-1,2,3-triazol-2-yl)methyl)phenylamino)-4-oxo-4,5-dihydropyrazolo[4,3-c]pyridin-1-yl)-4-(cyanomethyl)piperidine-1-carboxylate] | 2.1 nM | 0.7 nM
CC(C)(C)OC(=O)N1CCC(CC#N)(n2nc(Nc3ccc(C4(C(F)(F)F)CCNC4)cc3)c3c(=O)[nH]ccc32)CC1 (single isomer, unassigned) [Example 5-283, (S or R) tert-butyl 4-(cyanomethyl)-4-(4-oxo-3-((4-(3-(trifluoromethyl)pyrrolidin-3-yl)phenyl)amino)-4,5-dihydro-1H-pyrazolo[4,3-c]pyridin-1-yl)piperidine-1-carboxylate] | 0.33 nM | 0.43 nM
CN(C)S(=O)(=O)c1ccc(Nc2nn(C3(CC#N)CCN(CCCc4ccccc4)CC3)c3cc[nH]c(=O)c23)cc1 [Example 8-15, 4-({1-[4-(cyanomethyl)-1-(3-phenylpropyl)piperidin-4-yl]-4-oxo-4,5-dihydro-1H-pyrazolo[4,3-c]pyridin-3-yl}amino)-N,N-dimethylbenzenesulfonamide] | 0.53 nM | 2.84 nM
Cc1cc(Nc2nn([C@]3(CC#N)CC[C@@H](C(=O)OC(C)(C)C)OC3)c3cc[nH]c(=O)c23)ccc1C(=O)N1CCSC1C (single isomer, unassigned) [Example 5-156, (2S,5S)-tert-butyl 5-(cyanomethyl)-5-(3-((3-methyl-4-((S or R)-2-methylthiazolidine-3-carbonyl)phenyl)amino)-4-oxo-4,5-dihydro-1H-pyrazolo[4,3-c]pyridin-1-yl)tetrahydro-2H-pyran-2-carboxylate] | 0.17 nM | 0.3 nM
CC(O)(c1ccc(Nc2nn([C@]3(CC#N)CCCOC3)c3cc[nH]c(=O)c23)cc1)C(F)(F)F (single isomer, unassigned) [Example 5-111, {(3S)-3-[4-oxo-3-({4-[(1R or 1S)-2,2,2-trifluoro-1-hydroxy-1-methylethyl]phenyl}amino)-4,5-dihydro-1H-pyrazolo[4,3-c]pyridin-1-yl]tetrahydro-2H-pyran-3-yl}acetonitrile] | 0.09 nM | 0.35 nM
Cc1cc(Nc2nn([C@]3(CC#N)CC[C@@H](C(=O)OC(C)(C)C)OC3)c3cc[nH]c(=O)c23)ccc1C(=O)N1CCOC(C)(C)C1 [Example 5-220, (2S,5S)-tert-butyl 5-(cyanomethyl)-5-(3-((4-(2,2-dimethylmorpholine-4-carbonyl)-3-methylphenyl)amino)-4-oxo-4,5-dihydro-1H-pyrazolo[4,3-c]pyridin-1-yl)tetrahydro-2H-pyran-2-carboxylate] | 0.14 nM | 0.19 nM
CC(C)C(C)(C)S(=O)(=O)c1ccc(Nc2nn([C@]3(CC#N)CCCOC3)c3cc[nH]c(=O)c23)cc1 [Example 5-192, {(3S)-3-[4-oxo-3-({4-[(1,1,2-trimethylpropyl)sulfonyl]phenyl}amino)-4,5-dihydro-1H-pyrazolo[4,3-c]pyridin-1-yl]tetrahydro-2H-pyran-3-yl}acetonitrile] | 0.17 nM | 0.3 nM

Further molecules by falling IC50 [1], results first:

IC50 [1] | IC50 [2] | SMILES
65 nM | > 1500 nM | N#CC[C@]1(n2nc(Nc3ccc(Cl)cc3)c3c(=O)[nH]ccc32)CC[C@@H](Nc2ccccc2)CC1 [Example 18-13, Cis 2-(1-(3-((4-chlorophenyl)amino)-4-oxo-4,5-dihydro-1H-pyrazolo[4,3-c]pyridin-1-yl)-4-(phenylamino)cyclohexyl)acetonitrile]
13 nM | 79.9 nM | N#CC[C@]1(n2nc(Nc3ccc(C#N)cc3)c3c(=O)[nH]ccc32)CCOC1 (single isomer, unassigned) [Example 5-240, 4-({1-[(3S or 3R)-3-(cyanomethyl)tetrahydrofuran-3-yl]-4-oxo-4,5-dihydro-1H-pyrazolo[4,3-c]pyridin-3-yl}amino)benzonitrile]
7.27 nM | 54.7 nM | N#CC[C@]1(n2nc(Nc3ccc(OC(F)(F)F)cc3)c3c(=O)[nH]ccc32)CC[C@H](Nc2ccccc2)CC1 [Example 18-18, Trans 2-(1-(4-oxo-3-((4-(trifluoromethoxy)phenyl)amino)-4,5-dihydro-1H-pyrazolo[4,3-c]pyridin-1-yl)-4-(phenylamino)cyclohexyl)acetonitrile]
3.93 nM | 42.3 nM | N#CC[C@@]1(n2nc(Nc3ccc4nccc(F)c4c3)c3c(=O)[nH]ccc32)CCOC1 (single isomer, unassigned) [Example 5-245, [(3R or 3S)-3-{3-[(4-fluoroquinolin-6-yl)amino]-4-oxo-4,5-dihydro-1H-pyrazolo[4,3-c]pyridin-1-yl}tetrahydrofuran-3-yl]acetonitrile]
1.96 nM | 2.21 nM | CC(C)OC(=O)C(C)(C)C(O)(c1ccc(Nc2nn([C@]3(CC#N)CC[C@@H](C(=O)OC(C)(C)C)OC3)c3cc[nH]c(=O)c23)cc1)C(F)(F)F (single isomer, unassigned) [Example 5-163, (2S,5S)-tert-butyl 5-(cyanomethyl)-5-(4-oxo-3-((4-((S or R)-1,1,1-trifluoro-2-hydroxy-4-isopropoxy-3,3-dimethyl-4-oxobutan-2-yl)phenyl)amino)-4,5-dihydro-1H-pyrazolo[4,3-c]pyridin-1-yl)tetrahydro-2H-pyran-2-carboxylate]
1.07 nM | 0.46 nM | CC(C)(C)OC(=O)N1CCC(CC#N)(n2nc(Nc3cc(Cn4cccn4)cc(Cn4cccn4)c3)c3c(=O)[nH]ccc32)CC1 [Example 5-60, tert-butyl 4-(3-(3,5-bis((1H-pyrazol-1-yl)methyl)phenylamino)-4-oxo-4,5-dihydropyrazolo[4,3-c]pyridin-1-yl)-4-(cyanomethyl)piperidine-1-carboxylate]
0.84 nM | 1.84 nM | CN(C)S(=O)(=O)c1ccc(Nc2nn([C@]3(CC#N)COCC[C@@H]3F)c3cc[nH]c(=O)c23)cc1 (single isomer, unassigned) [Example 5-180, 4-({1-[(3R,4S or 3S,4R)-3-(cyanomethyl)-4-fluorotetrahydro-2H-pyran-3-yl]-4-oxo-4,5-dihydro-1H-pyrazolo[4,3-c]pyridin-3-yl}amino)-N,N-dimethylbenzene-sulfonamide]
0.34 nM | 1.39 nM | CC(C)(C)OC(=O)[C@@H]1CC[C@@](CC#N)(n2nc(Nc3ccc4nc(N5CC6CCC(C5)O6)ccc4c3)c3c(=O)[nH]ccc32)CO1 [Example 5-229, (2S,5S)-tert-butyl 5-(3-((2-(8-oxa-3-azabicyclo[3.2.1]octan-3-yl)quinolin-6-yl)amino)-4-oxo-4,5-dihydro-1H-pyrazolo[4,3-c]pyridin-1-yl)-5-(cyanomethyl) tetrahydro-2H-pyran-2-carboxylate]
0.24 nM | 3.73 nM | CN1Cc2cc(Nc3nn(C4(CC#N)CCCCC4)c4cc[nH]c(=O)c34)ccc2S1(=O)=O [Example 5-81, 2-(1-(3-((2-methyl-1,1-dioxido-2,3-dihydrobenzo[d]isothiazol-5-yl)amino)-4-oxo-4,5-dihydro-1H-pyrazolo[4,3-c]pyridin-1-yl)cyclohexyl)acetonitrile]
0.12 nM | 0.23 nM | COC(=O)N1CCC(CC#N)(n2nc(Nc3ccc(S(=O)(=O)C(C)C)cc3)c3c(=O)[nH]ccc32)CC1 [Example 5-149, methyl 4-(cyanomethyl)-4-(3-((4-(isopropylsulfonyl)phenyl)amino)-4-oxo-4,5-dihydro-1H-pyrazolo[4,3-c]pyridin-1-yl)piperidine-1-carboxylate]
0.09 nM | 1.32 nM | Cc1nc2ccc(Nc3nn(C4(CC#N)CCCOC4)c4cc[nH]c(=O)c34)cc2s1 (stereo in doubt) [Example 21-5, [(3S)-3-{3-[(2-methyl-1,3-benzothiazol-6-yl)amino]-4-oxo-4,5-dihydro-1H-pyrazolo[4,3-c]pyridin-1-yl}tetrahydro-2H-pyran-3-yl]acetonitrile]
